Data on 1 compound can be found in ChEMBL document CHEMBL4392873, “Transformation of Santonin to a Naproxen Analogue with Anti-Inflammatory Activity” (J Nat Prod, 2019).

Assay [1] has as its system Prostaglandin G/H synthase 2. The assay can be described thus: Inhibition of COX2 (unknown origin) assessed as reduction in prostaglandin E2 production at 30 uM incubated for 10 mins before arachidonic acid addition and measured after 25 mins by LC-MS/MS analysis. As to conditions: Homo sapiens.
Assay [2] has as its target Prostaglandin G/H synthase 1 (Ovis aries) (UniProt P05979). The assay can be described thus: Inhibition of ovine COX1 assessed as reduction in prostaglandin E2 production at 30 uM incubated for 10 mins before arachidonic acid addition and measured after 25 mins by LC-MS/MS analysis.
Assay [3] in a line: Selectivity index, ratio of IC50 for ovine COX1 to IC50 for COX2 (unknown origin).

As usually defined, the inhibition is the drop in the measured response relative to a control, in per cent.

`COC(=O)[C@@H](C)c1ccc2c(C)cc(O)c(C)c2c1`: the results for the inhibition in assay [1] and in assay [2] were 21.8% and 52.9%, respectively. The Ratio IC50 in assay [3] amounted to 0.496.
